Laboratory results: article PMC10447463, “Data-mining unveils structure–property–activity correlation of viral infectivity enhancing self-assembling peptides” (Nature Communications, 2023)

Legend:
[1] = tested on: HIV-1 infection of TZM-bl cells; assay: HIV-1 infectivity enhancement assay, β-galactosidase luminescence; format: cell-based; details: for Rel-EFC / Log10 Infection Rel EFC: 1.3 µM peptide; for Rel-EFC: infection relative to EF-C (QCKIKQIINMWQ = 1); for Log10 Infection Rel EFC: log10 of infection relative to EF-C; for Log Infectivity: Log10 infection relative to EF-C, TZM-bl cells, asymmetric std dev errors; for Log10 Infection Rel EF-C: HIV-1 infection of TZM-bl cells; for Log10 of Rel to EFC (Feb2021): Log10 of infection relative to EF-C, all peptides of FigS16
[2] = β-sheet content by ATR-FT-IR; format: physicochemical; details: Fig. S7 panel A; β-sheet content by ATR-FT-IR
Procedure, shortened: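 Lyophilized PNF (from 1 mg/mL) scanned 64× on diamond ATR, 2 cm^-1 resolution; β-sheet content per earlier report. CR: spin through 3 kDa MWCO, 16200 x g, 4 °C, 45 min; lyophilize filtrate + unfiltered; DMSO; fluorescamine 20 min RT; ex 365/em 470.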

[3] = Zeta-potential measurement; format: physicochemical; details: for Zeta-Pot.: zeta potential of peptide assemblies
Procedure, shortened: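 Dissolve peptide from DMSO (10 mg/mL stock) into PBS pH 7.4 to 1 mg/mL. Incubate 1 d, RT. Dilute in 1 mM KCl just before reading. Derive zeta potential from mobility (Smoluchowski).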

[4] = Turbidity, derived count rate of scattered light; format: physicochemical; details: for Count Rate / kcps: derived count rate of scattered light at 633 nm, 173°, from zeta-potential measurement, 0.1 mg/mL in 1 mM KCl after 1 d at 1 mg/mL in PBS, turbidity / microscopic aggregation, mean of triplicate
Procedure, shortened: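 One-day room-temperature aggregation at 1 mg/mL in PBS (pH 7.4) preceded measurement; samples then went into 1 mM KCl. Triplicates per sample, two independent experiments averaged.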

[5] = Turbidity, derived count rate of scattered light; format: physicochemical; details: for Count Rate: derived count rate of scattered light (turbidity); for Log10 Count Rate: turbidity, derived count rate of scattered light, data of Figure 2D
[6] = Fig. S7 panel A (plotted against β-sheet content)
[7] = Fig. S7 panel B (plotted against CR), rounded to two decimals
[8] = Log10 of infection rate relative to EF-C, Figure 3A source data
[9] = infection rate relative to EF-C, log10, data of Figure 2D
[10] = infection rate relative to EF-C, log10, source data of Figure 2C
[11] = zeta-potential of peptide, source data of Figure 2C
[12] = zeta-potential of the peptide assemblies, mean, Figure 3A source data
[13] = Log10 of derived count rate of scattered light (turbidity)
[14] = log10 of derived count rate of scattered light (turbidity)
[15] = turbidity, Log10 of derived count rate of scattered light, Figure 3A source data

Sequence | Rel-EFC [1] | Log10 Infection Rel EFC [1] | Log Infectivity [1, 6] | Log Infectivity [1, 7] | Log10 Infection Rel EF-C [1, 8] | Log10 Infection Rel EF-C [1, 9] | Log10 Infection Rel EF-C [1, 10] | Log10 of Rel to EFC (Feb2021) [1] | b -sheet / % [2] | Zeta-Pot. [3] | Zeta-Potential / mV [3, 11] | Zeta-Potential / mV [3, 12] | Log10 Count Rate [4, 13] | Count Rate / kcps [4] | Log10 Count Rate [4, 14] | Log10 Count Rate [4, 15] | Count Rate [5] | Log10 Count Rate [5] | Log10 Count Rate ([4]; logarithm of count rate in kcps)
RGDKIKIQIC | 0,83 | -0,08 | -0.07993 | -0.08 | -0.08 | -0.07993 | -0.07993 | -0.08 | 40.73% | 16.5 | 17.27 mV | 16.5 mV | 3.876 | 7509 kcps | 3.876 | 3.876 | 7509 | 3.876 | –
RGDKIKIQINM | 0,41 | -0,38 | -0.3838 | -0.38 | -0.38 | -0.3838 | -0.3838 | -0.38 | 45.52% | 16.43 | 16.22 mV | 16.43 mV | 1.7574 | 57 kcps | 1.7574 | 1.7574 | 57.2 | 1.7574 | –
RGDKIKIQINMWQ | 0,76 | -0,12 | -0.1175 | -0.12 | -0.12 | -0.1175 | -0.1175 | -0.12 | 49.07% | 6.59 | 11.21 mV | 6.59 mV | 3.1914 | 1554 kcps | 3.1914 | 3.1914 | 1554 | 3.1914 | –
RGDSGGGGGGKIKIQIC | 0,87 | -0,06 | -0.0628 | -0.06 | -0.06 | -0.0628 | -0.0628 | -0.06 | 40.62% | 16.7 | 16.7 mV | 16.7 mV | 4.018 | 10416 kcps | 4.018 | 4.018 | 10416.16667 | 4.018 | 4.018
RGDSKIKIQIC | 0,6 | -0,22 | -0.2249 | -0.22 | -0.22 | -0.2249 | -0.2249 | -0.22 | 38.56% | 15.1 | 15.65 mV | 15.1 mV | 3.431 | 2699 kcps | 3.431 | 3.431 | 2699 | 3.431 | –
